According to ChEMBL document CHEMBL1136095, “Pyrazole-O-glucosides as novel Na(+)-glucose cotransporter (SGLT) inhibitors” (2003):
The source made the active and inactive calls. The calls are words filed in the database; no cut-off is given here.

Experiments:
[1] = organism: Rattus norvegicus; assay: Na+ -glucose co-transporter (SGLT) inhibitory activity against [C14]-glucose transport in BBMV's of rat kidney at compound concentration of 100 uM; format: functional
[2] = system: Rattus norvegicus; assay: Urinary glucose excretion in Wistar rat after intravenous administration (3 mg/kg); format: functional, Urine
[3] = organism: Rattus norvegicus; assay: Na+ -glucose co-transporter (SGLT) inhibitory activity against [C14]-glucose transport in BBMV's of rat kidney at compound concentration of 100 uM: Not active; format: functional
[4] = organism: Rattus norvegicus; assay: Na+ -glucose co-transporter (SGLT) inhibitory activity against [C14]-glucose transport in BBMV's of rat kidney at compound concentration of 10 uM

| Compound | Inhibition [1] [%] | Glucose [2] [mg/day] | inhibition [3] | Inhibition [4] [%] |
| --- | --- | --- | --- | --- |
| CCc1ccc(Cc2c(C(F)(F)F)n[nH]c2O[C@@H]2O[C@H](C(=O)O)[C@@H](O)[C@H](O)[C@H]2O)cc1 | 30 | 2.6 | – | – |
| CSc1ccc(Cc2c(C(F)(F)F)n[nH]c2O)cc1 | – | 0 | inactive | – |
| CCc1ccc(Cc2c(C(F)(F)F)n[nH]c2O[C@@H]2O[C@H](CO)[C@@H](O)[C@H](O)[C@H]2O)cc1 | – | 63 | – | 84 |
